1 compound from ChEMBL document CHEMBL5537138, “Identification of a novel potent CDK inhibitor degrading cyclinK with a superb activity to reverse trastuzumab-resistance in HER2-positive breast cancer in vivo” (Eur J Med Chem, 2024) can be followed below.

This data set can be described thus: in vitro. The conditions noted are these: PAMPA.

Description: Permeability of compound at 12.5 uM incubated for 4 hrs by GIT PAMPA assay

Turning to `CCn1cnc2c(NCc3ccc(-c4ccoc4)nc3)nc(-c3cccnc3)nc21`, the apparent permeability coefficient (Papp) (as a rule, the rate of passage across a membrane or cell layer, normalised by area and donor concentration) at 4 h, 12.5 µM worked out at 72.4 ×10⁻⁶ cm/s.
